The source of these data is article PMC6199744, “Development of Chemical Proteomics for the Folateome and Analysis of the Kinetoplastid Folateome” (ACS Infectious Diseases, 2018).

Holding throughout (type): binding
In assay [1] the target is T1, HeLa cell extract proteins (Homo sapiens, UniProt Q99460).
T1 construct: endogenous in cells; host or cells: HeLa cell extract

Assay [2] addresses T2, HeLa cell extract proteins (Homo sapiens, UniProt Q9HB07).
T2 construct: endogenous in cells; host or cells: HeLa cell extract
T2 sequence (Q9HB07 48-376): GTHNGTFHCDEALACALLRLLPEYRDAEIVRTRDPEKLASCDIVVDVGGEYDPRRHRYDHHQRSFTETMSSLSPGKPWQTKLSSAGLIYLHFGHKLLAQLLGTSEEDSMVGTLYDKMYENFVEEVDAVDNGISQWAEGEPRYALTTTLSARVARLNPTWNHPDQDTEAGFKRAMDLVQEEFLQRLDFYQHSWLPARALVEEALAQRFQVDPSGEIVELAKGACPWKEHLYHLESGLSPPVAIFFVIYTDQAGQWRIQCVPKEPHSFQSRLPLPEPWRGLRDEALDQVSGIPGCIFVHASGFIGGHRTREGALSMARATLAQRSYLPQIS

In assay [3] the target is T3, HeLa cell extract proteins (Homo sapiens, UniProt P29401).
T3 construct: endogenous in cells; host or cells: HeLa cell extract
T3 sequence (P29401 1-623): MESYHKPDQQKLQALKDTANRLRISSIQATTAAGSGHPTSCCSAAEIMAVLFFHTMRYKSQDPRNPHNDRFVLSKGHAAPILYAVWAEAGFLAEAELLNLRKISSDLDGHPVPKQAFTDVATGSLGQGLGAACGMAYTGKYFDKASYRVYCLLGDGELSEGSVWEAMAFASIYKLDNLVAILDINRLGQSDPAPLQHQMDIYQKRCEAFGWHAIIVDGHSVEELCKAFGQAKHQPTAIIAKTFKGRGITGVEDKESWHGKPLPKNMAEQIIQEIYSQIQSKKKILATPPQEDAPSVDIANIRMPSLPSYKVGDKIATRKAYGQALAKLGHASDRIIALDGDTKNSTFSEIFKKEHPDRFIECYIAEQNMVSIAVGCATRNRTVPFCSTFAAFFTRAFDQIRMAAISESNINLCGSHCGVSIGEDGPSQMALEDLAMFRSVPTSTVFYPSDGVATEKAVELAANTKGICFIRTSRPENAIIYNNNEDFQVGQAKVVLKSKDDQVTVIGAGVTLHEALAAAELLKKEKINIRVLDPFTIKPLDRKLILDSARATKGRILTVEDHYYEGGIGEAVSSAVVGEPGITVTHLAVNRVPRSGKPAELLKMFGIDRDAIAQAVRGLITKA

Assay [4] concerns the target T4, HeLa cell extract proteins (Homo sapiens, UniProt P00505).
T4 construct: endogenous in cells; host or cells: HeLa cell extract
T4 sequence (P00505 30-430): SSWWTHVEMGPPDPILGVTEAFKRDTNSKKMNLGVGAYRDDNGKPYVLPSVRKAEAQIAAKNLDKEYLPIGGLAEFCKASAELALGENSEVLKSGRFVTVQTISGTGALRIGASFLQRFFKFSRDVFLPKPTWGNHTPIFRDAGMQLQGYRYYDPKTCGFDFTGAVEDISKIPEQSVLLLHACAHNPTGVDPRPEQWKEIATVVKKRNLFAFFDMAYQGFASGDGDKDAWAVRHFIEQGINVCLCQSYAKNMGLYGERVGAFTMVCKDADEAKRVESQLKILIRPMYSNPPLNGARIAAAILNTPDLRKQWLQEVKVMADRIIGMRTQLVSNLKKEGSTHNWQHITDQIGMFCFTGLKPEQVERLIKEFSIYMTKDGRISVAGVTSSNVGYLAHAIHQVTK

Assay [5] addresses T5, HeLa cell extract proteins (Homo sapiens, UniProt Q15067).
T5 construct: endogenous in cells; host or cells: HeLa cell extract
T5 sequence (Q15067 1-660): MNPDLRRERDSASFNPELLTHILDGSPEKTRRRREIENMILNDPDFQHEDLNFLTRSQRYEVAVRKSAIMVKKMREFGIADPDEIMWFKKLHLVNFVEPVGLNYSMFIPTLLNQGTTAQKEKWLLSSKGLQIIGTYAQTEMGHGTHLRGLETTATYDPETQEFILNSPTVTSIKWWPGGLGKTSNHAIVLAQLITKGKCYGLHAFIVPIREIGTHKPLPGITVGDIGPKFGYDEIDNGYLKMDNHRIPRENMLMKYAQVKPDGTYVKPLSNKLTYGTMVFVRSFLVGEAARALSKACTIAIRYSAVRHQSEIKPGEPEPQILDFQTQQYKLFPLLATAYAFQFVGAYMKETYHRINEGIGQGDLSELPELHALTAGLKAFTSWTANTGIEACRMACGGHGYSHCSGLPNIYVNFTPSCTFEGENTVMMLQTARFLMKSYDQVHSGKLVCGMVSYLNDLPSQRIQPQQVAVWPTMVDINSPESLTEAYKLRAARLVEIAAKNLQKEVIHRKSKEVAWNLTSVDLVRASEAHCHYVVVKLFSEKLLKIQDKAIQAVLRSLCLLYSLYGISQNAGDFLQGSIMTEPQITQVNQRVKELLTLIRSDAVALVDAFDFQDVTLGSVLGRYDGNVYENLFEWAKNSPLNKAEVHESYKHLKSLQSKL

Assay [6] concerns the target T6, HeLa cell extract proteins (Homo sapiens, UniProt P05455).
T6 construct: endogenous in cells; host or cells: HeLa cell extract
T6 sequence (P05455 1-408): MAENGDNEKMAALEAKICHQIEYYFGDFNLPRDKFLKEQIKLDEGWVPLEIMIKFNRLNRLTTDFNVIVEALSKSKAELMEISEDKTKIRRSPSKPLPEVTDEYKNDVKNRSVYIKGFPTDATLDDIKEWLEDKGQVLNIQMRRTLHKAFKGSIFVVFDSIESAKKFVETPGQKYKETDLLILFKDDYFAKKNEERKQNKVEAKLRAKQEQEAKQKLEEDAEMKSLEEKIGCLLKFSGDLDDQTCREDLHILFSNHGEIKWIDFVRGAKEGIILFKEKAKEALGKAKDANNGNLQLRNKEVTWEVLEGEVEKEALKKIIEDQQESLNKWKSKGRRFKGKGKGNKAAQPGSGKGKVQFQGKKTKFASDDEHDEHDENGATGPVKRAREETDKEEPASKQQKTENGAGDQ

Setting [7] is: captured protein C12ORF10, HeLa.
Where [8] appears, read: HeLa, protein SSB (LUPUS LA PROTEIN.).
[9] abbreviates: HeLa, captured protein C12ORF10.

Like-named read-outs stand apart in the source and are kept apart here.

T1 sequence (Q99460 whole entry): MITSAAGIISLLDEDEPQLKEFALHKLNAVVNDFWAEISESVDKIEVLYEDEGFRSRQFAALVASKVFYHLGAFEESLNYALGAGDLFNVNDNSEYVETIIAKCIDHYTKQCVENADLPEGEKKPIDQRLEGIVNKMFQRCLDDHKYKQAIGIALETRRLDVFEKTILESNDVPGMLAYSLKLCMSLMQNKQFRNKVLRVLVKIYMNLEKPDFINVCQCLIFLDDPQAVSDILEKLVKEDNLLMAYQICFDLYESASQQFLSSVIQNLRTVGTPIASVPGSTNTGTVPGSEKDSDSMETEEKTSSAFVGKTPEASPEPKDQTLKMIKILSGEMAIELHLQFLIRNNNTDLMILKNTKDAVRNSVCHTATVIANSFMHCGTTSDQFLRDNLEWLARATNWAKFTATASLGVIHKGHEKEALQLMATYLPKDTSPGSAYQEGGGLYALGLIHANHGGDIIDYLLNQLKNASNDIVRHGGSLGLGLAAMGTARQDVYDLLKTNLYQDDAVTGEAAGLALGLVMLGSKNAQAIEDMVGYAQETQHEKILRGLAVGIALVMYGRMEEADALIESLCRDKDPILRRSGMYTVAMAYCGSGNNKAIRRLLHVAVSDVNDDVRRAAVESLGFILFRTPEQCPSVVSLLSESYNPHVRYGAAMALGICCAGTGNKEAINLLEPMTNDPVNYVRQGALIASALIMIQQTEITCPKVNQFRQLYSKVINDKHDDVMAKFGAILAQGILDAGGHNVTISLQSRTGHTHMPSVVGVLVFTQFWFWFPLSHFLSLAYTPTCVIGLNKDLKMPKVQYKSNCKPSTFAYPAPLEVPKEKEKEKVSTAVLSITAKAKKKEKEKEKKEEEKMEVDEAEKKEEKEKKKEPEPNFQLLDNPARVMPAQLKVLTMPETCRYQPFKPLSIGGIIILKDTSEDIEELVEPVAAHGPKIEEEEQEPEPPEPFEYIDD

As for `Nc1nc2cccc(-c3ccccc3)c2n1Cc1ccc(Cl)c(Cl)c1` [compound 3], the “fold changes relative to vehicle control” value in assay [1] (protein PSMD1, HeLa) is reported as 1.14; in assay [2] (setting [7]), 1.04; in assay [3] (protein TKT, HeLa) it was 0.9; in assay [4] (protein GOT2, HeLa), 0.84; in assay [5] (HeLa, protein ACOX1), 1.33; in assay [6] (setting [8]), 1.01 fold.
With `NCCOCCOCC(=O)Nc1nc2ncc(CNc3ccc(C(=O)NC(CCC(=O)O)C(=O)O)cc3)nc2c(=O)[nH]1` (stereo not drawn) [compound 6], the “fold changes relative to vehicle control” value came to 1.08 in assay [1] (protein PSMD1, HeLa); 0.78 in assay [2] (setting [9]); 1.26 in assay [3] (HeLa, protein TKT); 1.16 in assay [4] (HeLa, protein GOT2); 0.99 in assay [5] (HeLa, protein ACOX1); 1.31 in assay [6] (HeLa, protein SSB).
Take `Nc1nc2[nH]cc(CCc3ccc(C(=O)N[C@@H](CCC(=O)O)C(=O)O)cc3)c2c(=O)[nH]1` [PTX, pemetrexed]: the “fold changes relative to vehicle control” value in assay [1] turned out to be 0.99; in assay [2] it was 0.33; in assay [3], 1.2; in assay [4], 0.99; in assay [5] it was 0.95; in assay [6], 1.12.
Regarding `Nc1nc2c(c(=O)[nH]1)N(C=O)C(CNc1ccc(C(=O)N[C@@H](CCC(=O)O)C(=O)O)cc1)CN2` (stereo partly drawn) [LEU, leucovorin], the “fold changes relative to vehicle control” value in assay [1] (protein PSMD1, HeLa) is 0.88; in assay [2] (setting [9]), 1.08; in assay [3] (HeLa, protein TKT) it was 1.12; in assay [4] (HeLa, protein GOT2) it was 0.94; in assay [5] (HeLa, protein ACOX1) it was 1; in assay [6] (HeLa, protein SSB), 1.03.
Consider `CCCCCCOc1ccc(Cc2cnc(N)nc2N)cc1` [compound 1], for which the “fold changes relative to vehicle control” value in assay [1] (protein PSMD1, HeLa) turned out to be 1.3; in assay [2] (setting [7]), 1.05; in assay [3] (protein TKT, HeLa), 1.41; in assay [4] (protein GOT2, HeLa), 1.12; in assay [5] (HeLa, protein ACOX1) it was 0.98; in assay [6] (setting [8]) it was 1.38 fold.
In the case of `NCCCNc1ccc(C(=O)NC(CCC(=O)O)C(=O)O)cc1` (stereo not drawn) [compound 7], the “fold changes relative to vehicle control” value in assay [1] (protein PSMD1, HeLa) was 1.16; in assay [2] (setting [9]) it was 1.12; in assay [3] (HeLa, protein TKT), 0.99; in assay [4] (HeLa, protein GOT2) it was 0.94; in assay [5] (HeLa, protein ACOX1), 0.94; in assay [6] (HeLa, protein SSB), 0.99.
For the molecule `CCCCCCOc1cccc(Cc2cnc(N)nc2N)c1` [compound 2], the “fold changes relative to vehicle control” value in assay [1] (protein PSMD1, HeLa) was determined as 1.78; in assay [2] (setting [7]), 1.06; in assay [3] (protein TKT, HeLa) it was 2.08; in assay [4] (protein GOT2, HeLa), 2.22; in assay [5] (HeLa, protein ACOX1), 0.92; in assay [6] (setting [8]), 2.04 fold.
